# How the values were obtained:
# MHC class I = test: MHC binding assay (peptide-ligand exchange, β2m ELISA); design: species or system human; conditions: yield of UV-exchange reaction
# Source text: Candidate peptides for T cell based therapies according to the present invention were further tested for their MHC binding capacity (affinity). The individual peptide-MHC complexes were produced by peptide-ligand exchange, where a cleavage-sensitive peptide is cleaved, and exchanged with the peptide of interest as analyzed. Only peptide candidates that can effectively bind and stabilize the peptide-receptive MHC molecules prevent dissociation of the MHC complexes. To determine the yield of the exchange reaction, an ELISA was performed based on the detection of the light chain (β2m) of stabilized MHC complexes. The assay was performed as generally described in Rodenko et al. (Rodenko et al., Nat Protoc. 1 (2006): 1120-1132).
# 96 well MAXISorp plates (NUNC) were coated over night with 2 ug/ml streptavidin in PBS at room temperature, washed 4× and blocked for 1 h at 37° C. in 2% BSA containing blocking buffer. Refolded HLA-A*0201/MLA-001 monomers served as standards, covering the range of 15-500 ng/ml. Peptide-MHC monomers of the UV-exchange reaction were diluted 100 fold in blocking buffer. Samples were incubated for 1 h at 37° C., washed four times, incubated with 2 ug/ml HRP conjugated anti-β2m for 1 h at 37° C., washed again and detected with TMB solution that is stopped with […]. Absorption was measured at 450 nm. […]
# [1] = test system: CD8+ T cells of healthy donors; test: In vitro T-cell priming with aAPCs loaded with peptide/MHC complexes and anti-CD28 antibody; format: cell-based, human; conditions: pMHC multimer readout
# Method: In order to obtain information regarding the immunogenicity of the TUMAPs of the present invention, the inventors performed investigations using an in vitro T-cell priming assay based on repeated stimulations of CD8+ T cells with artificial antigen presenting cells (aAPCs) loaded with peptide/MHC complexes and anti-CD28 antibody. […]
# Generation of pMHC/anti-CD28 coated beads, T-cell stimulations and readout was performed in a highly defined in vitro system using four different pMHC molecules per stimulation condition and 8 different pMHC molecules per readout condition. […]
# 800.000 beads/200 μl were coated in 96-well plates in the presence of 4×12.5 ng different biotin-pMHC, washed and 600 ng biotin anti-CD28 were added subsequently in a volume of 200 μl. […] For the pMHC multimer readout using 8 different pMHC molecules per condition, a two-dimensional combinatorial coding approach was used as previously described (Andersen et al., Nat. Protoc. 7 (2012): 891-902) with minor modifications encompassing coupling to 5 different fluorochromes. […] Peptide specific cells were calculated as percentage of total CD8+cells. […] In vitro priming of specific multimer+ CD8+ lymphocytes was detected by comparing to negative control stimulations.
# [2] = test system: peptide-specific CD8+ T cells of CLL patient PBMC; test: Intracellular IFN-γ and TNF-α staining; format: cell-based, human; conditions: peptide stimulated CLL patient PBMC
# Method: PBMC from CLL patients and healthy volunteers were cultured in RPMI1640 medium (Gibco) supplemented with 10% pooled human serum (PHS, produced in-house), […] β-mercaptoethanol (Roth, Karlsruhe, Germany) and 1% penicillin/streptomycin (GE). For CD8^+ T cell stimulation, PBMC were thawed and pulsed with 1 μg/ml per peptide. Peptide-pulsed PBMC (5-6×10^6 cells/ml) were cultured at 37° C. and 5% CO2 for 12 days. On day 0 and day […] IL-4 (R&D Systems, Minneapolis, Minn., USA) and 5 ng/ml IL-7 (Promokine, Heidelberg, Germany) were added to the culture medium. On days 3, 5, 7 and 9, 2 ng/ml IL-2 (R&D Systems) were added to the culture medium. Peptide-stimulated PBMC were functionally characterized by ELISPOT assays on day 12 and by intracellular cytokine staining on day 13 respectively. For CD4^+ T-cell stimulation, culture was performed as described for CD8^+ T cells with 2 modifications: pulsing was carried out with 10 μg/ml of HLA class II peptide and no IL-4 and IL-7 was added.
# The frequency and functionality of peptide-specific CD8^+ T cells was analyzed by intracellular IFN-γ and TNF-α staining. PBMC were pulsed with 1 μg/ml of individual peptide and incubated in the presence of 10 μg/ml Brefeldin A (Sigma, St. Louis, Mo., USA) and 10 μg/ml GolgiStop (BD) for 6-8 h. […] Samples were analyzed on a FACS Canto II.
# CLL patient CD8+ T cells = test: HLA:peptide tetramer staining; format: cell-based, human
# Method: The frequency of peptide-specific CD8^+ T cells was determined by staining with anti-CD8 and HLA:peptide-tetramer-PE
substance,measurement,setting,value
229 (FRVGNVQEL; listed as Homo sapiens) [compound 229],Peptide exchange (MHC class I binding score),MHC class I,++++ (>=75% = ++++)
239 (SENAFYLSP; listed as Homo sapiens) [compound 239],Peptide exchange (MHC class I binding score),MHC class I,++++ (>=75% = ++++)
KFAEEFYSF (listed as Homo sapiens) [SEQ ID NO: 20],"in vitro T-cell responses, positive donors of tested donors",[1],2 of 5
SSSGLHPPK (listed as Homo sapiens) [SEQ ID NO: 77],intracellular cytokine staining for IFNγ and TNFα,[2],confirmed
same,tetramer staining of CD8+ T cells,CLL patient CD8+ T cells,confirmed

# — patent US10450346B2, “Immunotherapy against several tumors of the blood, in particular chronic lymphoid leukemia (CLL)” (Immatics biotechnologies GmbH, priority 2014, dated 2019)
